Where two headings read alike, the source gives them in different places.
Legend:
[1] = system: Influenza virus A/Duck/Alberta/60/67 H12N5; assay type: binding
[2] = system: influenza virus strain A/NIB/H1N1/89M; experiment: FBI test, inhibition of viral adhesion (Table 9); conditions: 6'SLN as reference compound (=1)
PK15 cells = conditions: read-out: Concentration at which 50% inhibition of cytotoxicity was achieved, human serum, 10% rabbit serum complement
[3] = system: Influenza virus A/NIB/44/90M H3N2; experiment: Fetuin binding inhibition (FBI) test, inhibition of viral cell adhesion; conditions: for Relative activity: FBI test, Neu5AcαBn as reference compound (=1), specific activity per Neu5Ac group; for Kd: inhibitor virus complex
[4] = Gel permeation chromatography of aggregates; assay type: physicochemical; conditions: for Aggregate, %: determined by gel permeation chromatography
Excerpt: (§1) The formation of aggregates in solution can be observed by light scattering experiments or by gel permeation chromatography.
The compound of the general formula (I) Neu5Ac-Gab-ACm-Ad-Gly5-NHCH2-]4C (m=1-3) associates at room temperature in aqueous and organic solvents.
Silica gel 60 (40-63 μm) (Merck) was used for column chromatography. Sephadex of types LH-20, G-10, G-25 (Pharmacia, Sweden) and TSK-4000 (HPLC) were used for gel permeation chromatography.

[5] = Light scattering, particle size of aggregates; assay type: physicochemical
Procedure: as §1
The light scattering experiments were carried out using the following apparatus: Coultronics Coulter N4-MD (He-Ne laser, λ=632.8 nm, measurement of the scattering at an angle of 62.5° to the incident light beam), Spectra-Physics 164 (argon laser, λ=528.7 nm and λ=611.5 nm, measurement of the scattering at an angle of 90° to the incident light beam).
The investigation into the light scattering of a 50 mM solution of compound (22a) in water was carried out using a Spectra-Physics 164 argon laser (plasma lines λ=528.7 and 611.5 nm), the scattering was measured at an angle of 90° to the incident light beam. The particle size thereby determined was <2.5 nm. 50 μl of 0.8M NaHCO3 solution were added to the resulting solution. The light scattering was measured, as described above, the average particle size thereby determined was 200-400 nm.
50 μl of a 0.8M HCl was added to the resulting solution, and the sample was investigated by means of light scattering, as described above. The particle size thereby determined was <2.5 nm.

Molecule: CC(=O)N[C@H]1[C@H]([C@H](O)[C@H](O)CO)O[C@@](O[C@H]2[C@@H](O)[C@@H](CO)O[C@@H](O[C@H]3[C@H](O)[C@@H](O)C(O)O[C@@H]3CO)[C@@H]2O)(C(=O)O)C[C@@H]1O (some centres unmarked) [3'SL, reference compound]
- Relative activity ([1]; FBI test, 3'SL as reference compound (=1), specific activity per 3'SL group): 1
- Kd ([1]; fetuin binding assay, inhibitor virus complex): 20000 nM

Molecule: CC(=O)N[C@H]1[C@H]([C@H](O)[C@H](O)CO)O[C@](OC[C@H]2O[C@@H](O[C@H]3[C@H](O)[C@@H](NC(C)=O)C(O)O[C@@H]3CO)[C@H](O)[C@@H](O)[C@H]2O)(C(=O)O)C[C@@H]1O (some centres unmarked) [6'SLN, reference compound]
- Relative activity [2]: 1

Molecule: O=C(CCCCCNC(=O)CCCCCNC(=O)CCCCC(=O)NCCCO[C@@H]1O[C@H](CO)[C@H](O)[C@H](O[C@H]2O[C@H](CO)[C@H](O)[C@H](O)[C@H]2O)[C@H]1O)NCCCCCC(=O)NCC(=O)NCC(=O)NCC(=O)NCC(=O)NCC(=O)NCC(CNC(=O)CNC(=O)CNC(=O)CNC(=O)CNC(=O)CNC(=O)CCCCCNC(=O)CCCCCNC(=O)CCCCCNC(=O)CCCCC(=O)NCCCO[C@@H]1O[C@H](CO)[C@H](O)[C@H](O[C@H]2O[C@H](CO)[C@H](O)[C@H](O)[C@H]2O)[C@H]1O)(CNC(=O)CNC(=O)CNC(=O)CNC(=O)CNC(=O)CNC(=O)CCCCCNC(=O)CCCCCNC(=O)CCCCCNC(=O)CCCCC(=O)NCCCO[C@@H]1O[C@H](CO)[C@H](O)[C@H](O[C@H]2O[C@H](CO)[C@H](O)[C@H](O)[C@H]2O)[C@H]1O)CNC(=O)CNC(=O)CNC(=O)CNC(=O)CNC(=O)CNC(=O)CCCCCNC(=O)CCCCCNC(=O)CCCCCNC(=O)CCCCC(=O)NCCCO[C@@H]1O[C@H](CO)[C@H](O)[C@H](O[C@H]2O[C@H](CO)[C@H](O)[C@H](O)[C@H]2O)[C@H]1O [Compound 49, {Galα1-3Galβ1-O(CH2)3NH—CO(CH2)4CO—(NH(CH2)5CO)3—(NHCH2CO)5—NHCH2—]4C}x]
- IC50 (PK15 cells): 500 nM

Molecule: OC[C@H]1O[C@H](O[C@H]2[C@@H](O)[C@@H](CO)OC(O)[C@@H]2O)[C@H](O)[C@@H](O)[C@H]1O (some centres unmarked) [Galα1-3Gal, reference compound]
- IC50 (PK15 cells): 200000 nM

Molecule: CC(=O)N[C@H]1[C@H]([C@H](O)[C@H](O)CO)O[C@@](OCc2ccccc2)(C(=O)O)C[C@@H]1O [Neu5Acα-OBn, reference compound]
- Relative activity [3]: 1
- Kd ([3]; fetuin binding assay): 100000 nM

Molecule: CC(=O)N[C@@H]1[C@@H](O)[C@H](O[C@@H]2O[C@H](CO[C@]3(C(=O)O)C[C@H](O)[C@@H](NC(C)=O)[C@H]([C@H](O)[C@H](O)CO)O3)[C@H](O)[C@H](O)[C@H]2O)[C@@H](CO)O[C@H]1NC(=O)CNC(=O)CCCCC(=O)NCC(=O)NCC(=O)NCC(=O)NCC(CNC(=O)CNC(=O)CNC(=O)CNC(=O)CCCCC(=O)NCC(=O)N[C@@H]1O[C@H](CO)[C@@H](O[C@@H]2O[C@H](CO[C@]3(C(=O)O)C[C@H](O)[C@@H](NC(C)=O)[C@H]([C@H](O)[C@H](O)CO)O3)[C@H](O)[C@H](O)[C@H]2O)[C@H](O)[C@H]1NC(C)=O)(CNC(=O)CNC(=O)CNC(=O)CNC(=O)CCCCC(=O)NCC(=O)N[C@@H]1O[C@H](CO)[C@@H](O[C@@H]2O[C@H](CO[C@]3(C(=O)O)C[C@H](O)[C@@H](NC(C)=O)[C@H]([C@H](O)[C@H](O)CO)O3)[C@H](O)[C@H](O)[C@H]2O)[C@H](O)[C@H]1NC(C)=O)CNC(=O)CNC(=O)CNC(=O)CNC(=O)CCCCC(=O)NCC(=O)N[C@@H]1O[C@H](CO)[C@@H](O[C@@H]2O[C@H](CO[C@]3(C(=O)O)C[C@H](O)[C@@H](NC(C)=O)[C@H]([C@H](O)[C@H](O)CO)O3)[C@H](O)[C@H](O)[C@H]2O)[C@H](O)[C@H]1NC(C)=O [{Neu5Acα2-6Galβ1-4GlcNAcβ1-NHCOCH2NH—CO(CH2)4CO—(NHCH2CO)3—NHCH2—}4C, reference compound]
- Gel permeation HPLC peaks ([4]; TSK-4000 column, 0.2M NaCl): only one peak is observed, which corresponds to the molecular weight of the monomer

Molecule: [6′-SLN-Ap-Ad-AC2-Gly5-NHCH2]4C [Compound 54]
- Relative activity [2]: 1000

Molecule: [6′SLN-Ap-Ad-Gly7-NHCH2]4C [Compound 53]
- Relative activity [2]: 100

Molecule: [HCl.H-Gly7-NHCH2-]4C [Compound 22a]
- Particle size ([5]; 50 mM solution in water): < 2.5 nm
- Association state ([5]; after addition of 0.8M NaHCO3 solution): self-association of the compound is achieved
- Average particle size ([5]; after addition of 50 μl 0.8M NaHCO3 solution): 200-400 nm
- Particle size ([5]; after subsequent addition of 50 μl 0.8M HCl): < 2.5 nm
- Association state ([5]; water at 20° C.): non-associated form

Molecule: [Neu5Ac-Gab-AC2-Ad-Gly5-NHCH2-]4C [Compound 46]
- Relative activity [3]: 330
- Kd ([3]; fetuin binding assay): 300 nM
- Aggregate, % [4]: 92%

Molecule: [Neu5Ac-Gab-AC3-Ad-Gly5-NHCH2-]4C [Compound 47]
- Relative activity [3]: 1000
- Kd ([3]; fetuin binding assay): 100 nM
- Aggregate, % [4]: 96%

Molecule: [Neu5Ac-Gab-AC-Ad-Gly5-NHCH2-]4C [Compound 45]
- Relative activity [3]: 15
- Kd ([3]; fetuin binding assay): 7000 nM
- Aggregate, % [4]: 12%

Molecule: [Neu5Ac-Gab-Ad-AC2-Gly5-NHCH2-]4C [Compound 43]
- Relative activity [3]: 1000
- Kd ([3]; fetuin binding assay): 100 nM
- Aggregate, % [4]: 6%

Molecule: [Neu5Acα-OCH2(p-C6H4)NHCOCH2NH—CO(CH2)4CO—(NH(CH2)5CO)3—(NHCH2CO)5—NHCH2—]4C [Compound 44]
- Relative activity [3]: 2500
- Increase in specific activity in comparison with free ligand Neu5AcαBn ([3]; fetuin binding assay): more than three orders of magnitude
- Kd ([3]; fetuin binding assay): 40 nM
- Aggregate, % [4]: 54%

Molecule: {[Neu5Acα2-3Galβ1-4Glcβ1-NHCOCH2NH—CO(CH2)4CO—(NHCH2CO)5—NHCH2—]4C}x [Compound 50]
- Kd [1]: 1000 nM
- Relative activity [1]: 20

Molecule: {[Neu5Acα2-3Galβ1-4Glcβ1-NHCOCH2NH—CO(CH2)4CO—(NHCH2CO)7—NHCH2—]4C}x [Compound 51]
- Kd [1]: 100 nM
- Relative activity [1]: 200

Molecule: {[Neu5Acα-OCH2(p-C6H4)NHCOCH2NH—CO(CH2)4CO—(NHCH2CO)7—NHCH2—]4C} [Compound 48]
- Kd ([3]; fetuin binding assay): 100 nM
- Particle size of aggregates ([5]; water, 60° C.): up to 8000 nm
- Relative activity [2]: <0.2
